Assay results from patent publication US20110196000A1, “Use of succinate dehydrogenase (SDH) inhibitors in the treatment of plant species from the family of the true grasses” (Bayer CropScience AG, priority 2010, published 2011).

Legend:
Assay type in all cases: in vivo
wheat variety Ritmo [1] = experiment: Plot trial in Germany: green leaf area by visual scoring; conditions: sprays at BBCH 39 and 59
Description: In Germany a plot trial was set up with the wheat variety Ritmo in order to investigate the effect of bixafen on the physiology, morphology and abiotic stress tolerance of wheat plants under realistic agricultural conditions. The products under test were applied to the plants, in the form of sequential spray sequences (BBCH 39 and 59). The spray volume was 400 l of water per hectare. In each trial component, 5 repetitions were carried out. [table] The duration of green coloration of the leaf area was captured by regular visual scoring of the fraction of green leaf area.

wheat variety Ritmo [2] = experiment: Plot trial: chlorophyll content of leaves (pigment extraction method of Ziegler and Ehle)
wheat variety Ritmo [3] = experiment: Plot trial: yield components; conditions: sprays at BBCH 39 and 59
[4] = system: infection-free wheat plants of the cultivar Passat; experiment: Glasshouse trial: green leaf area by visual scoring; conditions: glasshouse
Description: (§1) In a glasshouse trial under controlled conditions, the effect of bixafen was investigated on the physiology, morphology and abiotic stress tolerance of infection-free wheat plants of the cultivar […] plants were grown in 10-litre containers over a period of 4 months. The substrate used was standard earth type ED 73 (Fröndenberg, Germany)+C-Horizont+Sand (4:2:1). The supply of nutrient to the plants took place by feeding with a 0.2% strength Flory 2 liquid fertilizer solution (from Euflor, Munich) once every two weeks. The plants were supplied with water as required. In each component of the trial, 10 repetitions were carried out. To prevent infestation with powdery mildew, Proquinazid (Talius® was applied once. The incidence of aphids and spider mites was avoided by treatments with Karate®, Bulldock® and Sumicidin®. The products under test were applied to the plants, in the form of sequential spray sequences (BBCH 39 and 59). The spray volume was 300 l of water per hectare. [table] The duration of the green coloration of the leaf area was captured on the basis of regular visual scoring of the fraction of the green leaf area.

[5] = system: infection-free wheat plants of the cultivar Passat; experiment: Glasshouse trial: yield components; conditions: glasshouse, sprays at BBCH 39 and 59
[6] = system: infection-free wheat plants of the cultivar Passat; experiment: Glasshouse trial: size of the flag leaf; conditions: at BBCH 83-85
Description: as §1, with “Morphological parameters measured, additionally, were the length and width, i.e. the size” for “The duration”, “flag leaf. This was greatest with” for “green coloration of”, “succinate dehydrogenase (SDH) inhibitor bixafen, in comparison to” for “leaf area was captured on”, “other comparison fungicides.” for “basis of regular visual scoring of the fraction of the green leaf area.”

[7] = system: infection-free wheat plants of the cultivar Passat; experiment: Glasshouse trial: time of heading (ear emergence); parameters: time of heading of wheat (ears emerged): unit not given here
Description: (§2) In a glasshouse trial under controlled conditions, the effect of bixafen was investigated on the physiology, morphology and abiotic stress tolerance of infection-free wheat plants of the cultivar […] plants were grown in 10-litre containers over a period of 4 months. The substrate used was standard earth type ED 73 (Fröndenberg, Germany)+C-Horizont+Sand (4:2:1). The supply of nutrient to the plants took place by feeding with a 0.2% strength Flory 2 liquid fertilizer solution (from Euflor, Munich) once every two weeks. The plants were supplied with water as required. In each component of the trial, 10 repetitions were carried out.

[8] = system: infection-free wheat plants of the cultivar Passat; experiment: Glasshouse trial: temperature of ears and leaves as measure of transpiration activity
Description: as §2

[9] = system: infection-free wheat plants of the cultivar Passat; experiment: Glasshouse trial: gas exchange activity of wheat ears; conditions: development stage BBCH 75
Description: as §2

[10] = 7 days after second fungicide application
[11] = 14 days after second fungicide application
[12] = 21 days after second fungicide application
[13] = 28 days after second fungicide application
[14] = 35 days after second fungicide application
[15] = 42 days after second fungicide application
[16] = 49 days after second fungicide application
[17] = BBCH 75 (mature milk), leaf F-1
[18] = BBCH 75 (mature milk), leaf F-2
[19] = BBCH 85 (mature dough), leaf F-1
[20] = BBCH 85 (mature dough), leaf F-2
[21] = 68 days after second fungicide application (so in the source)
[22] = 75 days after second fungicide application (so in the source)
[23] = 82 days after second fungicide application (so in the source)
[24] = 89 days after second fungicide application (so in the source)
[25] = 96 days after second fungicide application (so in the source)
[26] = 103 days after second fungicide application (so in the source)
[27] = 110 days after second fungicide application (so in the source)
[28] = 117 days after second fungicide application (so in the source)

## O=C(Nc1ccccc1-c1ccc(Cl)cc1)c1cccnc1Cl [Boscalid, 2-chloro-N-(4′-chlorobiphenyl-2-yl)nicotinamide]
Wheat variety Ritmo [1]; [10]
  green leaf area of the flag leaf: 96.0 % leaf area
  green leaf area of the second-from-top leaf (F-1): 94.4 % leaf area
  green leaf area of the third-from-top leaf (F-2): 90.3 % leaf area
Wheat variety Ritmo [1]; [11]
  green leaf area of the flag leaf: 95.5 % leaf area
  green leaf area of the second-from-top leaf (F-1): 91.8 % leaf area
  green leaf area of the third-from-top leaf (F-2): 85.8 % leaf area
Wheat variety Ritmo [1]; [12]
  green leaf area of the flag leaf: 86.1 % leaf area
  green leaf area of the second-from-top leaf (F-1): 74.7 % leaf area
  green leaf area of the third-from-top leaf (F-2): 61.5 % leaf area
Wheat variety Ritmo [1]; [13]
  green leaf area of the flag leaf: 73.6 % leaf area
  green leaf area of the second-from-top leaf (F-1): 60.0 % leaf area
  green leaf area of the third-from-top leaf (F-2): 41.0 % leaf area
Wheat variety Ritmo [1]; [14]
  green leaf area of the flag leaf: 43.2 % leaf area
  green leaf area of the second-from-top leaf (F-1): 25.5 % leaf area
  green leaf area of the third-from-top leaf (F-2): 4.6 % leaf area
Wheat variety Ritmo [1]; [15]
  green leaf area of the flag leaf: 7.0 % leaf area
  green leaf area of the second-from-top leaf (F-1): 0 % leaf area
  green leaf area of the third-from-top leaf (F-2): 0 % leaf area
Wheat variety Ritmo [1]; [16]
  green leaf area of the second-from-top leaf (F-1): 0 % leaf area
Wheat variety Ritmo [2]; BBCH 75 (mature milk), leaf F
  Chlorophyll content: 1597 µg/g
Wheat variety Ritmo [2]; [17]
  Chlorophyll content: 1505 µg/g
Wheat variety Ritmo [2]; [18]
  Chlorophyll content: 826 µg/g
Wheat variety Ritmo [2]; BBCH 85 (mature dough), leaf F
  Chlorophyll content: 188 µg/g
Wheat variety Ritmo [2]; [19]
  Chlorophyll content: 160 µg/g
Wheat variety Ritmo [2]; [20]
  Chlorophyll content: 110 µg/g
Wheat variety Ritmo [3]
  Ears/m^2: 444
  Harvest Index: 58.6
  Straw: 514 g m^−2
  TKM (thousand-kernel mass): 44.6 g
  Yield: 7.8 t ha^−1

## CCCN(CC)CC1COC2(CCC(C(C)(C)C)CC2)O1 (centres unmarked) [Spiroxamine]
Wheat variety Ritmo [1]; [10]
  green leaf area of the flag leaf: 98.3 % leaf area
  green leaf area of the second-from-top leaf (F-1): 97.4 % leaf area
  green leaf area of the third-from-top leaf (F-2): 94.1 % leaf area
Wheat variety Ritmo [1]; [11]
  green leaf area of the flag leaf: 97.9 % leaf area
  green leaf area of the second-from-top leaf (F-1): 95.8 % leaf area
  green leaf area of the third-from-top leaf (F-2): 93.3 % leaf area
Wheat variety Ritmo [1]; [12]
  green leaf area of the flag leaf: 92.7 % leaf area
  green leaf area of the second-from-top leaf (F-1): 85.8 % leaf area
  green leaf area of the third-from-top leaf (F-2): 78.1 % leaf area
Wheat variety Ritmo [1]; [13]
  green leaf area of the flag leaf: 82.3 % leaf area
  green leaf area of the second-from-top leaf (F-1): 69.7 % leaf area
  green leaf area of the third-from-top leaf (F-2): 51.7 % leaf area
Wheat variety Ritmo [1]; [14]
  green leaf area of the flag leaf: 48.6 % leaf area
  green leaf area of the second-from-top leaf (F-1): 31.7 % leaf area
  green leaf area of the third-from-top leaf (F-2): 15.7 % leaf area
Wheat variety Ritmo [1]; [15]
  green leaf area of the flag leaf: 5.5 % leaf area
  green leaf area of the second-from-top leaf (F-1): 0 % leaf area
  green leaf area of the third-from-top leaf (F-2): 0 % leaf area
Wheat variety Ritmo [1]; [16]
  green leaf area of the second-from-top leaf (F-1): 0 % leaf area
Wheat variety Ritmo [2]; BBCH 75 (mature milk), leaf F
  Chlorophyll content: 1471 µg/g
Wheat variety Ritmo [2]; [17]
  Chlorophyll content: 1245 µg/g
Wheat variety Ritmo [2]; [18]
  Chlorophyll content: 707 µg/g
Wheat variety Ritmo [2]; BBCH 85 (mature dough), leaf F
  Chlorophyll content: 114 µg/g
Wheat variety Ritmo [2]; [19]
  Chlorophyll content: 119 µg/g
Wheat variety Ritmo [2]; [20]
  Chlorophyll content: 147 µg/g
Wheat variety Ritmo [3]
  Ears/m^2: 409
  Harvest Index: 59.3
  Straw: 514 g m^−2
  TKM (thousand-kernel mass): 44.2 g
  Yield: 7.7 t ha^−1
[4]; [21]
  green leaf area of the flag leaf (F): 100 % leaf area
  green leaf area of the second-from-top leaf (F-1): 100 % leaf area
  green leaf area of the third-from-top leaf (F-2): 100 % leaf area
[4]; [22]
  green leaf area of the flag leaf (F): 100 % leaf area
  green leaf area of the second-from-top leaf (F-1): 100 % leaf area
  green leaf area of the third-from-top leaf (F-2): 95 % leaf area
[4]; [23]
  green leaf area of the flag leaf (F): 100 % leaf area
  green leaf area of the second-from-top leaf (F-1): 90 % leaf area
  green leaf area of the third-from-top leaf (F-2): 73 % leaf area
[4]; [24]
  green leaf area of the flag leaf (F): 92 % leaf area
  green leaf area of the second-from-top leaf (F-1): 77 % leaf area
  green leaf area of the third-from-top leaf (F-2): 45 % leaf area
[4]; [25]
  green leaf area of the flag leaf (F): 80 % leaf area
  green leaf area of the second-from-top leaf (F-1): 50 % leaf area
  green leaf area of the third-from-top leaf (F-2): 19 % leaf area
[4]; [26]
  green leaf area of the flag leaf (F): 55 % leaf area
  green leaf area of the second-from-top leaf (F-1): 23 % leaf area
  green leaf area of the third-from-top leaf (F-2): 7 % leaf area
[4]; [27]
  green leaf area of the flag leaf (F): 23 % leaf area
  green leaf area of the second-from-top leaf (F-1): 6 % leaf area
  green leaf area of the third-from-top leaf (F-2): 0 % leaf area
[4]; [28]
  green leaf area of the flag leaf (F): 3 % leaf area
  green leaf area of the second-from-top leaf (F-1): 0 % leaf area
  green leaf area of the third-from-top leaf (F-2): 0 % leaf area
[5]
  Ears/pot: 40.9
  Harvest Index: 36.3%
  Kernels/ear: 23.2
  Straw: 58.6 g/pot
  TKM (thousand-kernel mass): 35.5 g
  Yield: 33.4 g/pot
[6]
  Length of the flag leaf: 26.1 cm
  Width of the flag leaf: 1.2 cm
[6]; calculated using the formula A = 0.67 × length × width
  Area of the flag leaf: 20.98 cm^2
[6]; untreated = 100
  Area [rel.] of the flag leaf: 96 rel.
[7]; 45 days after sowing
  time of heading of wheat (ears emerged): 10.8
[7]; 50 days after sowing
  time of heading of wheat (ears emerged): 34.1
[7]; 55 days after sowing
  time of heading of wheat (ears emerged): 46.4
[7]; 60 days after sowing
  time of heading of wheat (ears emerged): 57.5
[7]; 65 days after sowing
  time of heading of wheat (ears emerged): 75.5
[7]; 70 days after sowing
  time of heading of wheat (ears emerged): 83.4
[7]; 75 days after sowing
  time of heading of wheat (ears emerged): 91.1
[7]; 80 days after sowing
  time of heading of wheat (ears emerged): 99.1
[7]; 85 days after sowing
  time of heading of wheat (ears emerged): 100
[8]; BBCH 75, ear
  Temperature (as a measure of the transpiration activity): 23.2 °C
[8]; BBCH 75, leaf
  Temperature (as a measure of the transpiration activity): 22.4 °C
[8]; BBCH 80, ear
  Temperature (as a measure of the transpiration activity): 20.2 °C
[8]; BBCH 80, leaf
  Temperature (as a measure of the transpiration activity): 16.4 °C
[8]; BBCH 85, ear
  Temperature (as a measure of the transpiration activity): 25.1 °C
[8]; BBCH 85, leaf
  Temperature (as a measure of the transpiration activity): 23.7 °C
[8]; BBCH 90, ear
  Temperature (as a measure of the transpiration activity): 24.2 °C
[8]; BBCH 90, lear (so in the source)
  Temperature (as a measure of the transpiration activity): 23.2 °C
[9]
  Photosynthesis (gas exchange activity of wheat ears): −2.36 a CO2 per ear
  Respiration (gas exchange activity of wheat ears): 2.82 b CO2 per ear
